This passage reports IC50 results from US11104661B1, “Inhibiting human integrin (α-4) (β-7)” (Morphic Therapeutic, Inc., priority 2019, dated 2021).

For orientation: IC50 means the concentration at which inhibition is half-maximal. Read a low IC50 as greater potency.

The first assay concerns the target T1, integrin α4β7 (Homo sapiens, UniProt P13612+P26010).
T1 sequence (P13612 35-977 limits assumed): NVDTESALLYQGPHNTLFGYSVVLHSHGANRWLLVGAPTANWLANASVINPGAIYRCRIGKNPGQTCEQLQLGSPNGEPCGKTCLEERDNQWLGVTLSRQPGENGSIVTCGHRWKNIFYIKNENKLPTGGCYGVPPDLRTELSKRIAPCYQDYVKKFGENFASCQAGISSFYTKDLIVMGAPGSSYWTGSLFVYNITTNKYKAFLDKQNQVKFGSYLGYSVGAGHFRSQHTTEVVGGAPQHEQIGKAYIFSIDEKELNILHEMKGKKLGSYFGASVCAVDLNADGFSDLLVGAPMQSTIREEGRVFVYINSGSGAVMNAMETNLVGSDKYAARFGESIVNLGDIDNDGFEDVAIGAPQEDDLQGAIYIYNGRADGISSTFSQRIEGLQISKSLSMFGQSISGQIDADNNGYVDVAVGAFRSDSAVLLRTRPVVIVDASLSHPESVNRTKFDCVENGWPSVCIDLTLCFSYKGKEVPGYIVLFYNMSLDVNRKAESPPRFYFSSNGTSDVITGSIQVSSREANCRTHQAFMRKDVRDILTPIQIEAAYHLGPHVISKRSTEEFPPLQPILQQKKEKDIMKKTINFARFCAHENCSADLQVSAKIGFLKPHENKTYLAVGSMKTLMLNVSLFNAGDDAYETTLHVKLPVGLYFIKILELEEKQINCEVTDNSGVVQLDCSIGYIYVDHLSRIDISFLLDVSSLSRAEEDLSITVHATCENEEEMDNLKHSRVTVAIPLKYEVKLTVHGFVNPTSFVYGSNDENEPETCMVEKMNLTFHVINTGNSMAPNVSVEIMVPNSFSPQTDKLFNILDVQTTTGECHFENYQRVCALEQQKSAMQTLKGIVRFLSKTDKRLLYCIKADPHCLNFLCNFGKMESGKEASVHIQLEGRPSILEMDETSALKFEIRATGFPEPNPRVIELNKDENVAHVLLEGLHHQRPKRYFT
T1 sequence (P26010 20-723 limits assumed): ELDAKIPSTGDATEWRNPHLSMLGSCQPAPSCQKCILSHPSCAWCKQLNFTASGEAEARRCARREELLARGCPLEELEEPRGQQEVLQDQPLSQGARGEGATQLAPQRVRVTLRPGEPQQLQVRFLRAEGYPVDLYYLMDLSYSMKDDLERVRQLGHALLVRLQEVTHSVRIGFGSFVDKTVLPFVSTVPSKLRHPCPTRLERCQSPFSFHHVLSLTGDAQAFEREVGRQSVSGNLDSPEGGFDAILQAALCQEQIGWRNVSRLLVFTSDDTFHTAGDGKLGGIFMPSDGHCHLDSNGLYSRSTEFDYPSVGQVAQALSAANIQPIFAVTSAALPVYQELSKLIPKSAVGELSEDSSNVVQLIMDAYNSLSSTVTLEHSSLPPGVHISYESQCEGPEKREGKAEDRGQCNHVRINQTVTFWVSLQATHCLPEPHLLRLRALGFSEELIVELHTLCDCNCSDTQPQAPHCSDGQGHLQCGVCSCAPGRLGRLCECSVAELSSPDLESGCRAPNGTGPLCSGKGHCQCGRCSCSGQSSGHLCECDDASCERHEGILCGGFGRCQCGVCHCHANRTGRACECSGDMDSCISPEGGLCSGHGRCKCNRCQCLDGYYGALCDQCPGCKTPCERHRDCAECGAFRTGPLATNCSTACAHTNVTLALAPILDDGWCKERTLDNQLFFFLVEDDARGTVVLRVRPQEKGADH
The assay is described as follows: Fluorescence polarization (FP) assay for α4β7 binding (Example 5). The settings on record: competition with fluorescein-labeled peptide, 6.5 nM integrin α4β7, 2 mM manganese chloride; Table 3. As to the method: Compounds of Formula (I) were evaluated using a fluorescent polarization (FP) assay. FP assays are used to evaluate potency of compounds on purified protein. The FP assays consists of measuring purified integrin αβ heterodimer ecto domains or headpiece binding to surrogate or truncated ligands.
Three in vitro assays were used to examine the α4β7 mechanistic process used by cells: 1) ligand:receptor affinity, 2) the avidity of those interactions on a cell's surface, and 3) how those interactions fare under an imposing force. In Example 5, a Fluorescence Polarization (FP) assay is used to measure compound activity through binding competition with the fluorescein-labeled peptide. In Example 6, the potency of compounds against α4β7 is measured in the cell-based ligand binding assay (LBA), using RPMI 8866 cells incubated with the compound samples in competition with soluble MAdCAM-1 ligand. In Example 7, activity of compounds is evaluated in a cell adhesion assay that mechanistically tests what occurs in vivo when trafficking cells utilize α4β7 to adhere to MAdCAM-1 expressing HEVs of the gut during the extravasation process. In the cell adhesion assay of Example 7, a MAdCAMI1-(Fc) is coated on plastic, and α4β7 expressing cells (RPMI-8866) are allowed to adhere to the coated surface in the presence of the test compounds. Next, the force of washing with buffer is applied to cells thereby testing the strength of that adhesion. Unattached cells are removed and the remaining adherent cells are quantified.
Fluorescence Polarization (FP) assays were used to measure compound activity through binding competition with the fluorescein-labeled peptide […]{Lys(FITC)}. In the assay, 6.5 nM of integrin α4β7 was incubated with the test compound in 2 mM manganese chloride, 0.1 mM calcium chloride, 20 mM HEPES buffer at pH 7.3, 150 mM sodium chloride, 0.01% Triton X-100, 2% DMSO, and 3 nM of the fluorescein-labeled peptide. Running the assays in 384-well plates, the integrin protein was pre-incubated with the test compounds for 15 minutes at 22° C. before the fluorescein-labeled peptide was added. After the fluorescein-labeled peptide was added, the assay was incubated at 22° C. for 1 hour and fluorescence polarization was measured. IC50 values were determined by nonlinear regression, four-parameter curve fitting.
The molecule `Cc1cc(C)c(-c2cc(C)c(F)c([C@H](CC(=O)O)NC(=O)C(CC(C)C)n3cc(CCN(C)C)c(C(F)(F)F)cc3=O)c2)c(C)c1` (single isomer, unassigned) [AC-P2] came in with an IC50 of at most 10 nM.

In turn, `Cc1cc(-c2c(C)ccc(F)c2C)cc([C@H](CC(=O)O)NC(=O)C(CC(C)C)n2cc(CCN3CCC3)c(C(F)(F)F)cc2=O)c1F` (single isomer, unassigned) [AF-P2] had a half-inhibitory concentration (IC50) of at most 10 nM. For `COc1ccc(C)c(-c2cc(C)c(F)c([C@H](CC(=O)O)NC(=O)C(CC(C)C)n3cc(CCN4CCC4)c(C(F)(F)F)cc3=O)c2)c1C` (single isomer, unassigned) [AG-P2], the IC50 is at most 10 nM. The molecule `Cc1cc(-c2c(C)cccc2C)cc([C@H](CC(=O)O)NC(=O)C(CC(C)C)n2cc(CCN3CC[C@@H](F)C3)cc(F)c2=O)c1F` (single isomer, unassigned) [AU-P2] yielded an IC50 of at most 10 nM. Same read-out and setting: under `Cc1cc(-c2c(C)cccc2C)cc([C@H](CC(=O)O)NC(=O)C(CC(C)C)n2cc(CCN3CC(F)C3)cc(F)c2=O)c1F` (single isomer, unassigned) [AV-P2] stands at most 10 nM; under `Cc1cccc(C)c1-c1cc([C@H](CC(=O)O)NC(=O)C(CC(C)C)n2cc(CCN3CCC3)c(C(F)(F)F)cc2=O)c(F)c(C(F)(F)F)c1` (single isomer, unassigned) [G-P2], at most 10 nM.

Still in this assay, the particulars now being: competition with fluorescein-labeled peptide, 6.5 nM integrin α4β7, 2 mM manganese chloride; Table 4 comparative compounds.
In the case of `Cc1cccc(C)c1-c1cccc([C@H](CC(=O)O)NC(=O)[C@H](CC(C)C)n2cc(CCN(C)C)ccc2=O)c1`, the concentration for half-maximal inhibition (IC50) was at most 10 nM. Regarding `Cc1cccc(C)c1-c1cccc([C@H](CC(=O)O)NC(=O)[C@H](CC(C)C)n2ccc(CCN(C)C)cc2=O)c1`, the concentration for half-maximal inhibition (IC50) is at most 10 nM. Consider `Cc1cccc(C)c1-c1cccc([C@H](CC(=O)O)NC(=O)[C@H](CC(C)C)n2cccc(CCN(C)C)c2=O)c1`, for which the IC50 is at most 10 nM. Same read-out and setting: the same measure for `Cc1cccc(C)c1-c1cccc([C@H](CC(=O)O)NC(=O)[C@H](CC(C)C)n2cc(CN3CC[C@@H](F)C3)ccc2=O)c1`: at most 10 nM.

Take `Cc1cccc(C)c1-c1cncc([C@H](CC(=O)O)NC(=O)[C@H](CC(C)C)n2ccc(C(F)(F)F)cc2=O)c1`: the IC50 was at most 10 nM. On the same count and under the same terms, the same measure for `Cc1ccn([C@@H](CC(C)C)C(=O)N[C@@H](CC(=O)O)c2cncc(-c3c(C)cccc3C)c2)c(=O)c1`: at most 10 nM; for `Cc1cccc(C)c1-c1cncc([C@H](CC(=O)O)NC(=O)C(CC(C)C)n2cc(C(F)(F)F)ccc2=O)c1` (some centres unmarked): at most 10 nM; for `Cc1cccc(C)c1-c1cncc([C@H](CC(=O)O)NC(=O)[C@H](CC(C)C)n2cc(CN3CC(F)C3)ccc2=O)c1`: at most 10 nM. Still for that read-out and setting: the same measure for `Cc1cccc(C)c1-c1cncc([C@H](CC(=O)O)NC(=O)[C@H](CC(C)C)N2CC[C@@H](C(F)(F)F)CC2=O)c1`: at most 10 nM; for `CC(C)C[C@@H](C(=O)N[C@@H](CC(=O)O)c1ccc(-c2ccc(F)cc2)cc1)n1cc(CCN(C)C)c(C(F)(F)F)cc1=O`: at most 10 nM. Same read-out and setting: under `CC(C)C[C@@H](C(=O)N[C@@H](CC(=O)O)c1ccc(-c2ccc(F)cc2)cc1)n1cc(CCN2CC(F)C2)cc(F)c1=O` stands at most 10 nM; under `CC(C)C[C@@H](C(=O)N[C@@H](CC(=O)O)c1ccc(-c2ccccc2)cc1)n1cc(CCN2CC(F)C2)cc(F)c1=O`, at most 10 nM. As for `Cc1ccccc1-c1cccc([C@H](CC(=O)O)NC(=O)[C@H](CC(C)C)n2cccc(C)c2=O)c1`, the IC50 was at most 10 nM. Same read-out and setting: the same measure for `CC(C)C[C@@H](C(=O)N[C@@H](CC(=O)O)c1ccc(-c2ccccc2)cc1)n1cc(CCN(C)C)c(C(F)(F)F)cc1=O`: 10 to 500 nM; for `Cc1ccccc1-c1cc([C@H](CC(=O)O)NC(=O)[C@H](CC(C)C)n2ccccc2=O)ccc1C`: 10 to 500 nM; for `Cc1ccccc1-c1cccc([C@H](CC(=O)O)NC(=O)[C@H](CC(C)C)n2ccncc2=O)c1`: 10 to 500 nM.

The molecule `COc1cccc(F)c1-c1cccc([C@H](CC(=O)O)NC(=O)[C@H](CC(C)C)n2cnc3ccccc3c2=O)c1` showed an IC50 of 10 to 500 nM. As to `Cc1ccccc1-c1cccc([C@H](CC(=O)O)NC(=O)[C@H](CC(C)C)n2ccccc2=O)c1`, the concentration for half-maximal inhibition (IC50) was in the range of 10 to 500 nM. The same measure, in the same setting: under `Cc1ccccc1-c1cc([C@H](CC(=O)O)NC(=O)C(CC(C)C)n2ccccc2=O)ccn1` (some centres unmarked) stands 10 to 500 nM; under `COc1ccc([C@H](CC(=O)O)NC(=O)C(CC(C)C)n2ccccc2=O)cc1-c1ccccc1C` (some centres unmarked), 10 to 500 nM. `Cc1ccc([C@@H](C(=O)N[C@@H](CC(=O)O)c2cncc(-c3c(C)cccc3C)c2)N2CC(C)CCC2=O)cc1` (some centres unmarked) showed an IC50 of at most 10 nM.

Molecule `Cc1cccc(C)c1-c1cc([C@H](CC(=O)O)NC(=O)[C@H](CC(C)C)n2ccccc2=O)ccn1` registered a half-inhibitory concentration (IC50) of 10 to 500 nM. As to `Cc1ccccc1-c1cc([C@H](CC(=O)O)NC(=O)C(CC(C)C)n2ccccc2=O)ccc1C#N` (some centres unmarked), the IC50 was at most 10 nM. In turn, `COC[C@@H](C(=O)N[C@@H](CC(=O)O)c1cccc(-c2c(C)cccc2C)c1)n1ccc(C)cc1=O` registered a half-maximal inhibitory concentration (IC50) of 10 to 500 nM. On the same count and under the same terms, under `Cc1cccc(C)c1-c1cncc([C@H](CC(=O)O)NC(=O)[C@H](CC(C)C)n2ccccc2=O)c1` stands at most 10 nM; under `Cc1cccc(C)c1-c1cccc([C@H](CC(=O)O)NC(=O)[C@H](CC(C)C)n2cc(CN3CC(F)C3)ccc2=O)c1` [drawing 572], at most 10 nM; under `Cc1cccc(C)c1-c1cccc([C@H](CC(=O)O)NC(=O)[C@H](CC(C)C)n2cc(CN3CC(F)C3)ccc2=O)c1` [drawing 577], at most 10 nM. The same measure, in the same setting: under `Cc1cccc(C)c1-c1cccc([C@H](CC(=O)O)NC(=O)[C@H](CC(C)C)n2cc(CN3CC(F)C3)ccc2=O)c1` [drawing 585] stands at most 10 nM; under `Cc1cccc(C)c1-c1cccc([C@H](CC(=O)O)NC(=O)[C@H](CC(C)C)n2cc(CN3CC(F)C3)ccc2=O)c1` [drawing 589], at most 10 nM; under `Cc1cccc(C)c1-c1cccc([C@H](CC(=O)O)NC(=O)[C@H](CC(C)C)n2cc(CN3CC(F)C3)ccc2=O)c1` [drawing 594], at most 10 nM. On to `Cc1cccc(C)c1-c1cccc([C@H](CC(=O)O)NC(=O)[C@H](CC(C)C)n2cc(CN3CC(F)C3)ccc2=O)c1` [drawing 599], for which the IC50 was at most 10 nM. The molecule `Cc1cccc(C)c1-c1cccc([C@H](CC(=O)O)NC(=O)[C@H](CC(C)C)n2cc(CN3CC(F)C3)ccc2=O)c1` [drawing 604] showed an IC50 of at most 10 nM.
